Compound: COc1cccc2cc(-c3nc([C@H]4CC[C@H](C(=O)O)CC4)n4ncnc(N)c34)[nH]c12 [OSI-027] + CC1(C)CCC(c2ccc(Cl)cc2)=C(CN2CCN(c3ccc(C(=O)NS(=O)(=O)c4ccc(N[C@H](CCN5CCOCC5)CSc5ccccc5)c(S(=O)(=O)C(F)(F)F)c4)cc3)CC2)C1 [Navitoclax] (partner 0.5 µM)
Experiment: relative viability (nuclei count vs DMSO), 5 days (fraction); higher = more cells survive
In short: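 Relative viability divides the nuclei count in treated wells by that in vehicle wells. Lung cancer cell lines were seeded in 1536-well plates, dosed by pin tool the next day, and fixed and stained after 5 days in one step with final 0.05% Triton X-100, 1% formaldehyde and 1 ug/ml Hoechst. Dosing was a single drug or a fixed anchor-drug dose plus five library-drug doses (not always all listed) in √10 steps, and values are medians of duplicate plates imaged at 4×.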

NCI-H647
relative viability (first compound 0.01 µM): 1.18
relative viability (first compound 0.03162 µM): 1.11
relative viability (first compound 0.1 µM): 1.09
relative viability (first compound 0.3162 µM): 0.994
relative viability (first compound 1 µM): 0.643

NCI-H727
relative viability (first compound 0.01 µM): 0.406
relative viability (first compound 0.03162 µM): 0.418
relative viability (first compound 0.1 µM): 0.477
relative viability (first compound 0.3162 µM): 0.378
relative viability (first compound 1 µM): 0.318

NCI-H838
relative viability (first compound 0.01 µM): 0.981
relative viability (first compound 0.03162 µM): 0.998
relative viability (first compound 0.1 µM): 0.853
relative viability (first compound 0.3162 µM): 0.501
relative viability (first compound 1 µM): 0.276

NCI-H1299
relative viability (first compound 0.01 µM): 1.07
relative viability (first compound 0.03162 µM): 1.05
relative viability (first compound 0.1 µM): 1.08
relative viability (first compound 0.3162 µM): 1.1
relative viability (first compound 1 µM): 1

NCI-H1355
relative viability (first compound 0.01 µM): 0.84
relative viability (first compound 0.03162 µM): 0.868
relative viability (first compound 0.1 µM): 0.855
relative viability (first compound 0.3162 µM): 0.529
relative viability (first compound 1 µM): 0.205

NCI-H1395
relative viability (first compound 0.01 µM): 1.16
relative viability (first compound 0.03162 µM): 0.998
relative viability (first compound 0.1 µM): 1.03
relative viability (first compound 0.3162 µM): 0.85
relative viability (first compound 1 µM): 0.79

NCI-H1437
relative viability (first compound 0.01 µM): 1.12
relative viability (first compound 0.03162 µM): 1.01
relative viability (first compound 0.1 µM): 1.14
relative viability (first compound 0.3162 µM): 1
relative viability (first compound 1 µM): 0.487

NCI-H1650
relative viability (first compound 0.01 µM): 1.21
relative viability (first compound 0.03162 µM): 1.47
relative viability (first compound 0.1 µM): 1.11
relative viability (first compound 0.3162 µM): 1.29
relative viability (first compound 1 µM): 0.459

NCI-H1651
relative viability (first compound 0.01 µM): 1.07
relative viability (first compound 0.1 µM): 0.935
relative viability (first compound 0.3162 µM): 0.836
relative viability (first compound 1 µM): 0.341

NCI-H1666
relative viability (first compound 0.01 µM): 0.912
relative viability (first compound 0.03162 µM): 0.878
relative viability (first compound 0.1 µM): 0.662
relative viability (first compound 0.3162 µM): 0.575
relative viability (first compound 1 µM): 0.391

NCI-H1703
relative viability (first compound 0.01 µM): 0.864
relative viability (first compound 0.03162 µM): 1.11
relative viability (first compound 0.1 µM): 0.991
relative viability (first compound 0.3162 µM): 0.625
relative viability (first compound 1 µM): 0.512

NCI-H1734
relative viability (first compound 0.01 µM): 0.749
relative viability (first compound 0.03162 µM): 0.836
relative viability (first compound 0.1 µM): 0.785
relative viability (first compound 0.3162 µM): 0.746
relative viability (first compound 1 µM): 0.384

NCI-H1755
relative viability (first compound 0.01 µM): 1.01
relative viability (first compound 0.03162 µM): 0.968
relative viability (first compound 0.1 µM): 0.988
relative viability (first compound 0.3162 µM): 0.753
relative viability (first compound 1 µM): 0.279

NCI-H1792
relative viability (first compound 0.01 µM): 0.417
relative viability (first compound 0.03162 µM): 0.458
relative viability (first compound 0.1 µM): 0.556
relative viability (first compound 0.3162 µM): 0.572
relative viability (first compound 1 µM): 0.43

NCI-H1793
relative viability (first compound 0.01 µM): 0.399
relative viability (first compound 0.03162 µM): 0.387
relative viability (first compound 0.1 µM): 0.407
relative viability (first compound 0.3162 µM): 0.318
relative viability (first compound 1 µM): 0.223

NCI-H1915
relative viability (first compound 0.01 µM): 0.831
relative viability (first compound 0.03162 µM): 0.779
relative viability (first compound 0.1 µM): 0.809
relative viability (first compound 0.3162 µM): 0.801
relative viability (first compound 1 µM): 0.85

NCI-H1944
relative viability (first compound 0.01 µM): 1.1
relative viability (first compound 0.03162 µM): 1.04
relative viability (first compound 0.1 µM): 1.03
relative viability (first compound 0.3162 µM): 0.963
relative viability (first compound 1 µM): 0.719

From the supplement of paper PMC10307832
